# Laboratory results reported in patent US12076307B2, “Compositions for prevention or treatment of acute radiation syndrome and other radiation exposure” (priority 2017, dated 2024).
# How the values were obtained:
# [1] = test system: CYP1A2; type: in vitro ADME, human; details: Positive Control, 50 μM; n=3
# [2] = target: CYP2C19 (Homo sapiens, UniProt P33261); experiment: CYP enzyme inhibition in human liver microsomes, CYP2C19
# From the text: (§1) CYP1A2, CYP2C9, CYP2C19, CYP2D6, and CYP3A4 are the CYP subfamily, which plays a critical role in the metabolism of most drugs.
# [3] = In vitro plasma stability, human plasma; type: in vitro ADME; details: Humans; 1 μM; 37° C.; n=3
# Protocol: (§2) To assess the stability of EC-18 in plasma, the test material, or the standard reference material (test concentration 1 μM) was mixed with rat and human plasma and allowed to react for 1 hr at 37° C. Then, the residual EC-18 concentration was measured by LC-MS/MS. As standard reference materials, albendazole (a drug with high plasma stability) and vinpocetine (a drug with low plasma stability) were tested in parallel. When allowed to react with rat and human plasma for 1 hr, the residual EC-18 concentration in both rat and human plasma was >99% of the initial dose.
# [4] = In vitro plasma stability, rat plasma; type: in vitro ADME; details: Rats; 1 μM; 37° C.; n=3
# Protocol: as §2
# [5] = target: CYP2D6 (Homo sapiens, UniProt P10635); experiment: CYP enzyme inhibition in human liver microsomes, CYP2D6
# From the text: as §1
# [6] = In vitro metabolic stability / metabolite screening, statements over all species; type: in vitro ADME, rat, dog, monkey, human; details: 100 μM
# Protocol: [^14C]EC-18 or the positive control (7-ethoxycoumarin; 7-EC) reacted with microsomes prepared from hepatocytes of rats, dogs, monkeys, and humans, with or without cofactors, for 60 and 120 min. Then, the residual EC-18 concentration over time was measured by LC-RID ([^14C]EC-18) or LC-MS/MS (7-EC) (FIG. 63 and FIG. 64).
# The LC-RID chromatographic profiles of radioactive metabolites produced in the 2-hr incubation reaction mixtures of the same test systems A, B, and C used to assess the metabolic and non-metabolic elimination rates of EC-18 were compared to the LC-UV chromatographic profiles of the synthetic reference material. […] The relative radioactivity of EC-18 accounted for 42-67% of total radioactivity. The peaks designated as M2, M3, and M5 were also determined in all species, and their relative radioactivity accounted for 12-34% of total radioactivity. The peaks of M4 and M6 were determined in monkeys and humans. M1 was abundantly detected in all species, but it was assumed to be a peak of early elution. The LC-UV chromatograms of reaction mixtures in each test system (FIGS. 65A-65C) and the relative radioactivity of the screened metabolites are shown in Table 25.
# [7] = target: T1, CYP1A2 (Homo sapiens, UniProt P05177); experiment: biochemical; type: in vitro ADME
# T1 construct: incubated with human liver microsomes; from tissue; host or cells: human liver microsomes
# T1 sequence (P05177 whole entry): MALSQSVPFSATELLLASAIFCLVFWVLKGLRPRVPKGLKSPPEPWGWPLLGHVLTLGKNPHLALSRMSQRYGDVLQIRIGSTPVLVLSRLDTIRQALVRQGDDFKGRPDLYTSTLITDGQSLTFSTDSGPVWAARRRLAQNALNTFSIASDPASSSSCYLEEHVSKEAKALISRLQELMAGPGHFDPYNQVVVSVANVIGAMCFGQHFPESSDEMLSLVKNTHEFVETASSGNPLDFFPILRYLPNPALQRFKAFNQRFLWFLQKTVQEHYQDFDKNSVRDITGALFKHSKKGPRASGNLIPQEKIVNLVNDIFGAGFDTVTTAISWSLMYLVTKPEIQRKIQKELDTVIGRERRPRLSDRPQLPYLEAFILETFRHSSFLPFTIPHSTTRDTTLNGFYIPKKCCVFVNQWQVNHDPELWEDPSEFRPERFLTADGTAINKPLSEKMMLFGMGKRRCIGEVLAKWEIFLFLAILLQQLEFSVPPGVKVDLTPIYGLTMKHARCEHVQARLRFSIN
# Chain of CYP2D6 (P10635 whole entry): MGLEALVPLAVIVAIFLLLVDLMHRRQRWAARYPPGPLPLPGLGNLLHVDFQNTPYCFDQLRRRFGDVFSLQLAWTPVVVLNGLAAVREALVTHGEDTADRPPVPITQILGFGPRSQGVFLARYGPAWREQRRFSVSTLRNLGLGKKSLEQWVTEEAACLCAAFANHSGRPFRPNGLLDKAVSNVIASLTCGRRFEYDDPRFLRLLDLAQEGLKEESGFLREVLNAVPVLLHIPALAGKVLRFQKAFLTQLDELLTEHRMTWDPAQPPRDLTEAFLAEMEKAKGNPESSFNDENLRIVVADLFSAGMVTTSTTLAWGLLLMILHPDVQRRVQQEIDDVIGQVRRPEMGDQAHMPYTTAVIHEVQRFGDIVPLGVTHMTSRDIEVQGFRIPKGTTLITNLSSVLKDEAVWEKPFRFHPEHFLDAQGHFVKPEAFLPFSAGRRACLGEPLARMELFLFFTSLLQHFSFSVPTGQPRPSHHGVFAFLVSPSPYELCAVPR
# Chain of CYP2C19 (P33261 whole entry): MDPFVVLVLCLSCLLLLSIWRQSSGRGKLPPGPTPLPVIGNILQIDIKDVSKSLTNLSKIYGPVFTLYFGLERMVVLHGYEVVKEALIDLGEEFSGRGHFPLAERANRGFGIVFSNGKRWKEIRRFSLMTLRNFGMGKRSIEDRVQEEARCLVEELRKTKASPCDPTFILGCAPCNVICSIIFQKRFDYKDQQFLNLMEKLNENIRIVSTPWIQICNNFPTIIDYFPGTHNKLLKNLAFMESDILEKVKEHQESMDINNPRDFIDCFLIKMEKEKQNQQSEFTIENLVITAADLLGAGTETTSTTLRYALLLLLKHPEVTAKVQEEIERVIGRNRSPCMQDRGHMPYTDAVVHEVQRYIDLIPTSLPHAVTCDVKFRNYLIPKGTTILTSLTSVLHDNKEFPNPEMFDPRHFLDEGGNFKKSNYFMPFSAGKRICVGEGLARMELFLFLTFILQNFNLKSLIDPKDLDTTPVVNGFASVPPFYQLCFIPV
structure (smiles),measurement,setting,value
"COc1ccc2[nH]c([S+]([O-])Cc3ncc(C)c(OC)c3C)nc2c1 (stereo not shown) [omeprazole, reference compound]",Enzyme Activity CYP1A2,[1],6.56 ± 2.86 pmol/106 Cells/Min
same,IC50,[2],6 µM
"CCCSc1ccc2nc(NC(=O)OC)[nH]c2c1 [Albendazol, albendazole, reference compound]",Residual Concentration Relative to the Initial Dose After Reaction for 1 hr in Plasma,[3],>99%
same,Residual Concentration Relative to the Initial Dose After Reaction for 1 hr in Plasma,[4],>99%
"CC(CN1c2ccccc2Sc2ccccc21)N(C)C (stereo not shown) [promethazine, reference compound]",IC50,[5],67.9 µM
"CCOC(=O)C1=C[C@]2(CC)CCCN3CCc4c(n1c1ccccc41)[C@@H]32 [Vinpocetin, vinpocetine, reference compound]",Residual Concentration Relative to the Initial Dose After Reaction for 1 hr in Plasma,[3],85.3 ± 3.8%
same,Residual Concentration Relative to the Initial Dose After Reaction for 1 hr in Plasma,[4],52.4 ± 7.2%
"CCOc1ccc2ccc(=O)oc2c1 [7-EC, 7-ethoxycoumarin, reference compound]",share of initial concentration eliminated,"[6]; 1 hr, test systems A and B, rats, dogs, monkeys, humans",≥ 99%
same,share of initial concentration retained,"[6]; 2 hrs, test system C",≥ 92%
same,IC50,[7],1.7 µM
